The text below walks through data of ChEMBL document CHEMBL1140267, “Synthesis and pharmacological evaluation of substituted 5-[4-[2-(6,7-dimethyl-1,2,3,4-tetrahydro-2-oxo-4-quinoxalinyl)ethoxy]phenyl]methylene]thiazolidine-2,4-dione derivatives as potent euglycemic and hypolipidemic agents” (Bioorg Med Chem Lett, 2005).

The first data set can be described thus: Percent decrease in plasma glucose level of wistar rat was determined at 3 mg/kg dosage of the compound. The data set is classed as ADME, organism-based. The arrangement: dose 3 mg/kg. As to conditions: in vivo.
As for `Cc1cc2c(cc1C)N(CCOc1ccc(/C=C3/SC(=O)NC3=O)cc1)C(c1ccccc1)C(=O)N2` (stereo unspecified), the Decrease was 25.24%.
The same measure, in the same setting: under `Cc1cc2c(cc1C)N(CCOc1ccc(/C=C3/SC(=O)NC3=O)cc1)C(C)C(=O)N2` (stereo unspecified) stands 43.16%; under `Cc1cc2c(cc1C)N(CCOc1ccc(/C=C3/SC(=O)NC3=O)cc1)CC(=O)N2`, 50.12%.
Same read-out and setting: under `Cc1cc2c(cc1C)N(CCCOc1ccc(/C=C3/SC(=O)NC3=O)cc1)C(C)C(=O)N2` (stereo unspecified) stands 35.73%; under `Cc1cc2c(cc1C)N(CCCOc1ccc(/C=C3/SC(=O)NC3=O)cc1)CC(=O)N2`, 47.65%; under `Cc1cc2c(cc1C)N(CCCOc1ccc(/C=C3/SC(=O)NC3=O)cc1)C(c1ccccc1)C(=O)N2` (stereo unspecified), 18.68%.
Still for that read-out and setting: under `CN(CCOc1ccc(CC2SC(=O)NC2=O)cc1)c1ccccn1` (stereo unspecified) [ROSIGLITAZONE] stands 41.6%.

The next data set is described as follows: Percent decrease in triglyceride level of wistar rat was determined at 100 mg/kg dosage of the compound. The data set is classed as ADME, organism-based. The arrangement: dose 100 mg/kg. As to conditions: in vivo.
`Cc1cc2c(cc1C)N(CCOc1ccc(/C=C3/SC(=O)NC3=O)cc1)C(c1ccccc1)C(=O)N2` (stereo unspecified): the Decrease is 29.73%.
Still for that read-out and setting: under `Cc1cc2c(cc1C)N(CCOc1ccc(/C=C3/SC(=O)NC3=O)cc1)C(C)C(=O)N2` (stereo unspecified) stands 43.42%; under `Cc1cc2c(cc1C)N(CCOc1ccc(/C=C3/SC(=O)NC3=O)cc1)CC(=O)N2`, 54.95%.
Still for that read-out and setting: under `Cc1cc2c(cc1C)N(CCCOc1ccc(/C=C3/SC(=O)NC3=O)cc1)C(C)C(=O)N2` (stereo unspecified) stands 37.46%; under `Cc1cc2c(cc1C)N(CCCOc1ccc(/C=C3/SC(=O)NC3=O)cc1)CC(=O)N2`, 50.1%.
Same read-out and setting: under `Cc1cc2c(cc1C)N(CCCOc1ccc(/C=C3/SC(=O)NC3=O)cc1)C(c1ccccc1)C(=O)N2` (stereo unspecified) stands 22.89%; under `CN(CCOc1ccc(CC2SC(=O)NC2=O)cc1)c1ccccn1` (stereo unspecified) [ROSIGLITAZONE], 46%.

A further data set in a line: Percent decrease in plasma glucose level of wistar rat was determined at 10 mg/kg dosage of the compound. It is filed as ADME, organism-based. The arrangement: dose 10 mg/kg. The conditions noted are these: in vivo.
In turn, `Cc1cc2c(cc1C)N(CCOc1ccc(/C=C3/SC(=O)NC3=O)cc1)C(c1ccccc1)C(=O)N2` (stereo unspecified) yielded a Decrease of 21.69%.
On the same count and under the same terms, under `Cc1cc2c(cc1C)N(CCOc1ccc(/C=C3/SC(=O)NC3=O)cc1)C(C)C(=O)N2` (stereo unspecified) stands 42.17%; under `Cc1cc2c(cc1C)N(CCOc1ccc(/C=C3/SC(=O)NC3=O)cc1)CC(=O)N2`, 52.63%.
In turn, `Cc1cc2c(cc1C)N(CCCOc1ccc(/C=C3/SC(=O)NC3=O)cc1)C(C)C(=O)N2` (stereo unspecified) came in with a Decrease of 39.21%.
Regarding `Cc1cc2c(cc1C)N(CCCOc1ccc(/C=C3/SC(=O)NC3=O)cc1)CC(=O)N2`, the Decrease was 49.11%.
On the same count and under the same terms, under `Cc1cc2c(cc1C)N(CCCOc1ccc(/C=C3/SC(=O)NC3=O)cc1)C(c1ccccc1)C(=O)N2` (stereo unspecified) stands 19.25%; under `CN(CCOc1ccc(CC2SC(=O)NC2=O)cc1)c1ccccn1` (stereo unspecified) [ROSIGLITAZONE], 47.25%.

A further data set can be described thus: Percent decrease in plasma glucose level of wistar rat was determined at 30 mg/kg dosage of the compound. The conditions noted are these: in vivo. On the set-up: dose 30 mg/kg. It is filed as ADME, organism-based.
Molecule `Cc1cc2c(cc1C)N(CCOc1ccc(/C=C3/SC(=O)NC3=O)cc1)C(c1ccccc1)C(=O)N2` (stereo unspecified) returned a Decrease of 40.26%.
As for `Cc1cc2c(cc1C)N(CCOc1ccc(/C=C3/SC(=O)NC3=O)cc1)C(C)C(=O)N2` (stereo unspecified), the Decrease turned out to be 58.48%.
On the same count and under the same terms, under `Cc1cc2c(cc1C)N(CCOc1ccc(/C=C3/SC(=O)NC3=O)cc1)CC(=O)N2` stands 69.47%; under `Cc1cc2c(cc1C)N(CCCOc1ccc(/C=C3/SC(=O)NC3=O)cc1)C(C)C(=O)N2` (stereo unspecified), 49.62%.
The same measure, in the same setting: under `Cc1cc2c(cc1C)N(CCCOc1ccc(/C=C3/SC(=O)NC3=O)cc1)CC(=O)N2` stands 64.76%; under `Cc1cc2c(cc1C)N(CCCOc1ccc(/C=C3/SC(=O)NC3=O)cc1)C(c1ccccc1)C(=O)N2` (stereo unspecified), 26.42%; under `CN(CCOc1ccc(CC2SC(=O)NC2=O)cc1)c1ccccn1` (stereo unspecified) [ROSIGLITAZONE], 65%.

The nature of a further data set: Percent decrease in plasma glucose level of wistar rat was determined at 100 mg/kg dosage of the compound. The data set is classed as ADME, organism-based. The arrangement: dose 100 mg/kg. As to conditions: in vivo.
`Cc1cc2c(cc1C)N(CCOc1ccc(/C=C3/SC(=O)NC3=O)cc1)C(c1ccccc1)C(=O)N2` (stereo unspecified) came in with a Decrease of 53.96%.
Still for that read-out and setting: under `Cc1cc2c(cc1C)N(CCOc1ccc(/C=C3/SC(=O)NC3=O)cc1)C(C)C(=O)N2` (stereo unspecified) stands 69.72%; under `Cc1cc2c(cc1C)N(CCOc1ccc(/C=C3/SC(=O)NC3=O)cc1)CC(=O)N2`, 81.25%; under `Cc1cc2c(cc1C)N(CCCOc1ccc(/C=C3/SC(=O)NC3=O)cc1)C(C)C(=O)N2` (stereo unspecified), 64.26%.
On the same count and under the same terms, under `Cc1cc2c(cc1C)N(CCCOc1ccc(/C=C3/SC(=O)NC3=O)cc1)CC(=O)N2` stands 72.33%.
On to `Cc1cc2c(cc1C)N(CCCOc1ccc(/C=C3/SC(=O)NC3=O)cc1)C(c1ccccc1)C(=O)N2` (stereo unspecified), for which the Decrease is 38.96%.
Same read-out and setting: under `CN(CCOc1ccc(CC2SC(=O)NC2=O)cc1)c1ccccn1` (stereo unspecified) [ROSIGLITAZONE] stands 75.5%.

A short description of another data set: Percent decrease in triglyceride level of wistar rat was determined at 3 mg/kg dosage of the compound. The data set is classed as ADME, organism-based. The arrangement: dose 3 mg/kg. As to conditions: in vivo.
Molecule `Cc1cc2c(cc1C)N(CCOc1ccc(/C=C3/SC(=O)NC3=O)cc1)C(c1ccccc1)C(=O)N2` (stereo unspecified) came in with a Decrease of 16.87%.
The same measure, in the same setting: under `Cc1cc2c(cc1C)N(CCOc1ccc(/C=C3/SC(=O)NC3=O)cc1)C(C)C(=O)N2` (stereo unspecified) stands 23.46%; under `Cc1cc2c(cc1C)N(CCOc1ccc(/C=C3/SC(=O)NC3=O)cc1)CC(=O)N2`, 49.63%; under `Cc1cc2c(cc1C)N(CCCOc1ccc(/C=C3/SC(=O)NC3=O)cc1)C(C)C(=O)N2` (stereo unspecified), 21.73%.
`Cc1cc2c(cc1C)N(CCCOc1ccc(/C=C3/SC(=O)NC3=O)cc1)CC(=O)N2` returned a Decrease of 30.36%.
`Cc1cc2c(cc1C)N(CCCOc1ccc(/C=C3/SC(=O)NC3=O)cc1)C(c1ccccc1)C(=O)N2` (stereo unspecified) yielded a Decrease of 10.46%.
Same read-out and setting: under `CN(CCOc1ccc(CC2SC(=O)NC2=O)cc1)c1ccccn1` (stereo unspecified) [ROSIGLITAZONE] stands 47%.

Another data set is described as follows: Percent decrease in triglyceride level of wistar rat was determined at 10 mg/kg dosage of the compound. The arrangement: dose 10 mg/kg. The data set is classed as ADME, organism-based. As to conditions: in vivo.
`Cc1cc2c(cc1C)N(CCOc1ccc(/C=C3/SC(=O)NC3=O)cc1)C(c1ccccc1)C(=O)N2` (stereo unspecified) displayed a Decrease of 20.36%.
In the case of `Cc1cc2c(cc1C)N(CCOc1ccc(/C=C3/SC(=O)NC3=O)cc1)C(C)C(=O)N2` (stereo unspecified), the Decrease is listed as 32.62%.
For `Cc1cc2c(cc1C)N(CCOc1ccc(/C=C3/SC(=O)NC3=O)cc1)CC(=O)N2`, the Decrease was 44.2%.
The same measure, in the same setting: under `Cc1cc2c(cc1C)N(CCCOc1ccc(/C=C3/SC(=O)NC3=O)cc1)C(C)C(=O)N2` (stereo unspecified) stands 29.69%.
Still for that read-out and setting: under `Cc1cc2c(cc1C)N(CCCOc1ccc(/C=C3/SC(=O)NC3=O)cc1)CC(=O)N2` stands 38.13%; under `Cc1cc2c(cc1C)N(CCCOc1ccc(/C=C3/SC(=O)NC3=O)cc1)C(c1ccccc1)C(=O)N2` (stereo unspecified), 10.66%; under `CN(CCOc1ccc(CC2SC(=O)NC2=O)cc1)c1ccccn1` (stereo unspecified) [ROSIGLITAZONE], 35.25%.

The nature of a further data set: Percent decrease in triglyceride level of wistar rat was determined at 30 mg/kg dosage of the compound. As to conditions: in vivo. It is filed as ADME, organism-based. The arrangement: dose 30 mg/kg.
The molecule `Cc1cc2c(cc1C)N(CCOc1ccc(/C=C3/SC(=O)NC3=O)cc1)C(c1ccccc1)C(=O)N2` (stereo unspecified) returned a Decrease of 22.46%.
`Cc1cc2c(cc1C)N(CCOc1ccc(/C=C3/SC(=O)NC3=O)cc1)C(C)C(=O)N2` (stereo unspecified) yielded a Decrease of 40%.
On the same count and under the same terms, under `Cc1cc2c(cc1C)N(CCOc1ccc(/C=C3/SC(=O)NC3=O)cc1)CC(=O)N2` stands 49.12%; under `Cc1cc2c(cc1C)N(CCCOc1ccc(/C=C3/SC(=O)NC3=O)cc1)C(C)C(=O)N2` (stereo unspecified), 28.82%.
`Cc1cc2c(cc1C)N(CCCOc1ccc(/C=C3/SC(=O)NC3=O)cc1)CC(=O)N2` returned a Decrease of 47.35%.
Same read-out and setting: under `Cc1cc2c(cc1C)N(CCCOc1ccc(/C=C3/SC(=O)NC3=O)cc1)C(c1ccccc1)C(=O)N2` (stereo unspecified) stands 14.73%.
Molecule `CN(CCOc1ccc(CC2SC(=O)NC2=O)cc1)c1ccccn1` (stereo unspecified) [ROSIGLITAZONE] gave a Decrease of 41%.
